Source: BindingDB's records for doi:10.1016/j.bmc.2016.03.038 (2016)

Key:
[1] = Inhibition of mouse GAT3 expressed in HEK293 cells assessed as [3H]GABA uptake preincubated for 25 mins followed by [3H]GABA/unlabeled GABA addition measured after 4 mins by liquid scintillation counting analysis
[2] = Inhibition of mouse GAT2 expressed in HEK293 cells assessed as [3H]GABA uptake preincubated for 25 mins followed by [3H]GABA/unlabeled GABA addition measured after 10 mins by liquid scintillation counting analysis

IC50 [1] [µM]	IC50 [2] [µM]	SMILES
62.5	–	O=C(O)[C@H]1CNCC[C@H]1CC/C=C/c1ccccc1Cc1ccccc1
44.5	–	O=C(O)[C@H]1CNCC[C@@H]1CCCC/C=C/c1ccccc1-c1ccccc1
37.6	–	O=C(O)[C@H]1CNCC[C@H]1CCCC#Cc1ccccc1Cc1ccccc1
–	52.2	O=C(O)[C@H]1CNCC[C@H]1CCCC/C=C/c1ccccc1-c1ccccc1
